Measurements taken from patent US11214803B2, “Modulators of YAP1 expression” (Ionis Pharmaceuticals, Inc., priority 2019, dated 2022).
Strand notation (5' to 3'): a small letter for the sugar, then the base; units joined by * are phosphorothioate-linked, units joined directly phosphodiester-linked; [ ] holds rarer units or linkages, { } end groups; capitals alone tell only the bases. k = constrained ethyl (cEt); [5mC] = 5-methylcytosine; d = 2'-deoxy (DNA)

Legend:
SCC-4 cells = test: Cell proliferation assay in SCC-4 cells, CellTiter-Glo (Example 39); assay type: cell-based, human; conditions: free uptake, approximately 144 hours
Method: Modified oligonucleotides described in the studies above were tested at various doses in tongue squamous cell carcinoma cell line SCC 4. A control oligonucleotide 792169, described herein above, was also tested.
(§1) Cultured SCC-4 cells at a density of 1000 cells/well were treated using free uptake with modified oligonucleotides diluted to concentrations described in the tables below. After approximately 144 hours, cell proliferation was measured using the luminescent cell viability CellTiter-Glo® 2.0 Assay (Promega). Results are presented in the tables below as percent control of the amount of luminescence in samples treated with modified oligonucleotides relative to untreated control cells (% UTC).

Yap1 mRNA [1] = test: Yap1 mRNA in SNU-1076 cells, RNA analysis (Example 45); assay type: cell-based, human; conditions: free uptake, approximately 48 hours
Method: (§2) Modified oligonucleotides described in the studies above were tested at various doses in upper aerodigestive tract/laryngeal squamous cell carcinoma line SNU-1076. A control oligonucleotide 792169, described herein above, was also tested.
Cultured SNU-1076 cells at a density of 5000 cells per well were treated using free uptake with modified oligonucleotides diluted to concentrations described in the tables below. After approximately 48 hours, Yap1 mRNA levels were measured as previously described using the Human Yap1 primer-probe set RTS4814. Yap1 mRNA levels were normalized to actin-beta content, as measured by primer probe set RTS5002. Results are presented in the tables below as percent control of the amount of Yap1 mRNA relative to untreated control cells (% UTC).

SCC-15 cells = test: Cell proliferation assay in SCC-15 cells, CellTiter-Glo (Example 41); assay type: cell-based, human; conditions: free uptake, approximately 144 hours
Method: Modified oligonucleotides described in the studies above were tested at various doses in tongue squamous cell carcinoma cell line SCC-15. A control oligonucleotide 792169, described herein above, was also tested.
as §1, with “SCC-15” for “SCC-4”

NCI H747 cells = test: Cell proliferation assay in NCI H747 cells, CellTiter-Glo (Example 31); assay type: cell-based, human; conditions: free uptake, 7 days
Method: Modified oligonucleotides described in the studies above were tested at various doses in colorectal adenocarcinoma cell line NCI H747. A control oligonucleotide 792169 was also tested.
as §1, with “NCI H747” for “SCC-4”, “3000” for “1000”, “7 days,” for “approximately 144 hours,”

SNU-1066 cells = test: Cell proliferation assay in SNU-1066 cells, CellTiter-Glo (Example 44); assay type: cell-based, human; conditions: free uptake, approximately 144 hours
Method: Modified oligonucleotides described in the studies above were tested at various doses in laryngeal squamous cell carcinoma line SNU-1066. A control oligonucleotide 792169, described herein above, was also tested.
as §1, with “SNU-1066” for “SCC-4”

BICR-22 cells = test: Cell proliferation assay in BICR-22 cells, CellTiter-Glo (Example 35); assay type: cell-based, human; conditions: free uptake, approximately 144 hours
Method: Modified oligonucleotides described in the studies above were tested at various doses in tongue squamous carcinoma (lymph node metastasis) cell line BICR-22. A control oligonucleotide 792169, described herein above, was also tested.
as §1, with “BICR-22” for “SCC-4”

SNU-1076 cells = test: Cell proliferation assay in SNU-1076 cells, CellTiter-Glo (Example 45); assay type: cell-based, human; conditions: free uptake, approximately 144 hours
Method: as §2
as §1, with “SNU-1076” for “SCC-4”

Yap1 mRNA [2] = test: Yap1 mRNA levels in CAL33 xenograft tumors (Example 29); assay type: in vivo, human; conditions: CAL33 xenografts, 50 mg/kg twice weekly for two weeks, relative to PBS treated animals
Method: A xenograft tumor model was used to evaluate activity of modified oligonucleotides targeted to human Yap1. One million CAL33 cells in 30% matrigel were implanted subcutaneously into the flanks of female CrTac:NCr-Foxnlnu (Taconic) mice. When tumors reached an average volume of 100 mm^3, approximately two weeks post-implantation, groups of eight mice were administered at 50 mg/kg twice weekly with modified oligonucleotides for two weeks. ION 792169 was administered as a control.
Tumor samples were collected for measurement of Yap1 mRNA levels by RT-qPCR. Yap1 mRNA levels were measured as previously described using the Human Yap1 primer-probe set RTS4814. Yap1 mRNA levels were normalized to actin-beta content, as measured by primer probe set RTS5002. Results are presented in the tables below as percent control of the amount of Yap1 mRNA relative to PBS treated animals (% control).

Substance: 715487 (kA*kT*kT*dA*d[5mC]*dT*dT*d[5mC]*dA*dT*dA*dG*d[5mC]*kT*kT*kA) [compound 715487]
- Antiproliferative effect (cell proliferation, luminescence) (SCC-4 cells; 0.04 μM): 158 % UTC
- Antiproliferative effect (cell proliferation, luminescence) (SCC-4 cells; 0.2 μM): 121 % UTC
- Antiproliferative effect (cell proliferation, luminescence) (SCC-4 cells; 1 μM): 106 % UTC
- Antiproliferative effect (cell proliferation, luminescence) (SCC-4 cells; 5 μM): 69 % UTC
- human Yap1 mRNA expression (Yap1 mRNA [1]; 0.04 μM): 89 % UTC
- human Yap1 mRNA expression (Yap1 mRNA [1]; 0.2 μM): 67 % UTC
- human Yap1 mRNA expression (Yap1 mRNA [1]; 1 μM): 31 % UTC
- human Yap1 mRNA expression (Yap1 mRNA [1]; 5 μM): 11 % UTC
- Antiproliferative effect (cell proliferation, luminescence) (SCC-15 cells; 0.04 μM): 87 % UTC
- Antiproliferative effect (cell proliferation, luminescence) (SCC-15 cells; 0.2 μM): 66 % UTC
- Antiproliferative effect (cell proliferation, luminescence) (SCC-15 cells; 1 μM): 47 % UTC
- Antiproliferative effect (cell proliferation, luminescence) (SCC-15 cells; 5 μM): 28 % UTC
- Antiproliferative effect (cell proliferation, luminescence) (NCI H747 cells; 0.04 μM): 91 % UTC
- Antiproliferative effect (cell proliferation, luminescence) (NCI H747 cells; 0.2 μM): 86 % UTC
- Antiproliferative effect (cell proliferation, luminescence) (NCI H747 cells; 1 μM): 65 % UTC
- Antiproliferative effect (cell proliferation, luminescence) (NCI H747 cells; 5 μM): 42 % UTC
- Antiproliferative effect (cell proliferation, luminescence) (SNU-1066 cells; 0.04 μM): 97 % UTC
- Antiproliferative effect (cell proliferation, luminescence) (SNU-1066 cells; 0.2 μM): 86 % UTC
- Antiproliferative effect (cell proliferation, luminescence) (SNU-1066 cells; 1 μM): 72 % UTC
- Antiproliferative effect (cell proliferation, luminescence) (SNU-1066 cells; 5 μM): 47 % UTC
- Antiproliferative effect (cell proliferation, luminescence) (BICR-22 cells; 0.04 μM): 70 % UTC
- Antiproliferative effect (cell proliferation, luminescence) (BICR-22 cells; 0.2 μM): 56 % UTC
- Antiproliferative effect (cell proliferation, luminescence) (BICR-22 cells; 1 μM): 28 % UTC
- Antiproliferative effect (cell proliferation, luminescence) (BICR-22 cells; 5 μM): 22 % UTC
- Antiproliferative effect (cell proliferation, luminescence) (SNU-1076 cells; 0.04 μM): 91 % UTC
- Antiproliferative effect (cell proliferation, luminescence) (SNU-1076 cells; 0.2 μM): 90 % UTC
- Antiproliferative effect (cell proliferation, luminescence) (SNU-1076 cells; 1 μM): 86 % UTC
- Antiproliferative effect (cell proliferation, luminescence) (SNU-1076 cells; 5 μM): 79 % UTC

Substance: 1198728 (TATTAGAGTATGTGGC; modified gapmer, further chemistry not given here) [compound 1198728]
- Yap1 mRNA levels in tumors, % control (Yap1 mRNA [2]): 40 % control

Substance: 1198440 (AAGTGTATGTCAGAAG; cEt, 2'-MOE, 5-methylcytosine, phosphorothioate modifications, further chemistry not given here) [compound 1198440]
- Antiproliferative effect (cell proliferation, luminescence) (SCC-4 cells; 0.04 μM): 82 % UTC
- Antiproliferative effect (cell proliferation, luminescence) (SCC-4 cells; 0.2 μM): 60 % UTC
- Antiproliferative effect (cell proliferation, luminescence) (SCC-4 cells; 1 μM): 21 % UTC
- Antiproliferative effect (cell proliferation, luminescence) (SCC-4 cells; 5 μM): 11 % UTC
- human Yap1 mRNA expression (Yap1 mRNA [1]; 0.04 μM): 83 % UTC
- human Yap1 mRNA expression (Yap1 mRNA [1]; 0.2 μM): 43 % UTC
- human Yap1 mRNA expression (Yap1 mRNA [1]; 1 μM): 11 % UTC
- human Yap1 mRNA expression (Yap1 mRNA [1]; 5 μM): 3 % UTC
- Antiproliferative effect (cell proliferation, luminescence) (SCC-15 cells; 0.04 μM): 72 % UTC
- Antiproliferative effect (cell proliferation, luminescence) (SCC-15 cells; 0.2 μM): 54 % UTC
- Antiproliferative effect (cell proliferation, luminescence) (SCC-15 cells; 1 μM): 42 % UTC
- Antiproliferative effect (cell proliferation, luminescence) (SCC-15 cells; 5 μM): 32 % UTC
- Antiproliferative effect (cell proliferation, luminescence) (NCI H747 cells; 0.04 μM): 87 % UTC
- Antiproliferative effect (cell proliferation, luminescence) (NCI H747 cells; 0.2 μM): 66 % UTC
- Antiproliferative effect (cell proliferation, luminescence) (NCI H747 cells; 1 μM): 36 % UTC
- Antiproliferative effect (cell proliferation, luminescence) (NCI H747 cells; 5 μM): 18 % UTC
- Yap1 mRNA levels in tumors, % control (Yap1 mRNA [2]): 12 % control
- Antiproliferative effect (cell proliferation, luminescence) (SNU-1066 cells; 0.04 μM): 89 % UTC
- Antiproliferative effect (cell proliferation, luminescence) (SNU-1066 cells; 0.2 μM): 66 % UTC
- Antiproliferative effect (cell proliferation, luminescence) (SNU-1066 cells; 1 μM): 58 % UTC
- Antiproliferative effect (cell proliferation, luminescence) (SNU-1066 cells; 5 μM): 43 % UTC
- Antiproliferative effect (cell proliferation, luminescence) (BICR-22 cells; 0.04 μM): 55 % UTC
- Antiproliferative effect (cell proliferation, luminescence) (BICR-22 cells; 0.2 μM): 37 % UTC
- Antiproliferative effect (cell proliferation, luminescence) (BICR-22 cells; 1 μM): 29 % UTC
- Antiproliferative effect (cell proliferation, luminescence) (BICR-22 cells; 5 μM): 19 % UTC
- Antiproliferative effect (cell proliferation, luminescence) (SNU-1076 cells; 0.04 μM): 99 % UTC
- Antiproliferative effect (cell proliferation, luminescence) (SNU-1076 cells; 0.2 μM): 87 % UTC
- Antiproliferative effect (cell proliferation, luminescence) (SNU-1076 cells; 1 μM): 81 % UTC
- Antiproliferative effect (cell proliferation, luminescence) (SNU-1076 cells; 5 μM): 81 % UTC

Substance: CGCCGATAAGGTACAC (cEt gapmer, phosphorothioate backbone, further chemistry not given here) [ION 792169, reference compound]
- Antiproliferative effect (cell proliferation, luminescence) (SCC-4 cells; 0.04 μM): 125 % UTC
- Antiproliferative effect (cell proliferation, luminescence) (SCC-4 cells; 0.2 μM): 169 % UTC
- Antiproliferative effect (cell proliferation, luminescence) (SCC-4 cells; 1 μM): 142 % UTC
- Antiproliferative effect (cell proliferation, luminescence) (SCC-4 cells; 5 μM): 136 % UTC
- human Yap1 mRNA expression (Yap1 mRNA [1]; 0.04 μM): 89 % UTC
- human Yap1 mRNA expression (Yap1 mRNA [1]; 0.2 μM): 98 % UTC
- human Yap1 mRNA expression (Yap1 mRNA [1]; 1 μM): 102 % UTC
- human Yap1 mRNA expression (Yap1 mRNA [1]; 5 μM): 107 % UTC
- Antiproliferative effect (cell proliferation, luminescence) (SCC-15 cells; 0.04 μM): 93 % UTC
- Antiproliferative effect (cell proliferation, luminescence) (SCC-15 cells; 0.2 μM): 92 % UTC
- Antiproliferative effect (cell proliferation, luminescence) (SCC-15 cells; 1 μM): 89 % UTC
- Antiproliferative effect (cell proliferation, luminescence) (SCC-15 cells; 5 μM): 71 % UTC
- Antiproliferative effect (cell proliferation, luminescence) (NCI H747 cells; 0.04 μM): 89 % UTC
- Antiproliferative effect (cell proliferation, luminescence) (NCI H747 cells; 0.2 μM): 97 % UTC
- Antiproliferative effect (cell proliferation, luminescence) (NCI H747 cells; 1 μM): 91 % UTC
- Antiproliferative effect (cell proliferation, luminescence) (NCI H747 cells; 5 μM): 80 % UTC
- Yap1 mRNA levels in tumors, % control (Yap1 mRNA [2]): 74 % control
- Antiproliferative effect (cell proliferation, luminescence) (SNU-1066 cells; 0.04 μM): 100 % UTC
- Antiproliferative effect (cell proliferation, luminescence) (SNU-1066 cells; 0.2 μM): 104 % UTC
- Antiproliferative effect (cell proliferation, luminescence) (SNU-1066 cells; 1 μM): 102 % UTC
- Antiproliferative effect (cell proliferation, luminescence) (SNU-1066 cells; 5 μM): 96 % UTC
- Antiproliferative effect (cell proliferation, luminescence) (BICR-22 cells; 0.04 μM): 97 % UTC
- Antiproliferative effect (cell proliferation, luminescence) (BICR-22 cells; 0.2 μM): 95 % UTC
- Antiproliferative effect (cell proliferation, luminescence) (BICR-22 cells; 1 μM): 82 % UTC
- Antiproliferative effect (cell proliferation, luminescence) (BICR-22 cells; 5 μM): 65 % UTC
- Antiproliferative effect (cell proliferation, luminescence) (SNU-1076 cells; 0.04 μM): 97 % UTC
- Antiproliferative effect (cell proliferation, luminescence) (SNU-1076 cells; 0.2 μM): 104 % UTC
- Antiproliferative effect (cell proliferation, luminescence) (SNU-1076 cells; 1 μM): 106 % UTC
- Antiproliferative effect (cell proliferation, luminescence) (SNU-1076 cells; 5 μM): 108 % UTC
